Here are results for 5 compounds from article PMC10766610, “DCAF1-based PROTACs with activity against clinically validated targets overcoming intrinsic- and acquired-degrader resistance” (Nature Communications, 2024).

Where two headings read alike, the source gives them in different places.

One experiment addresses T1, BTK kinase domain (Homo sapiens, UniProt Q06187).
T1 construct: BTK kinase domain was mixed in assay buffer
Nature of the experiment: BTK EPK assay (enzymatic inhibition). In kind it is biochemical. How it is done:
BTK kinase domain was mixed in assay buffer containing 50 mM HEPES pH 7.5, 0.02% Tween20, 0.02 % bovine serum albumin, 1 mM DTT, 0.01 mM Na3VO4, 10 mM b-Glycerolphosphate, 18 mM MgCl2, 1 mM MnCl2 to a 2× concentration of 8 nM. This solution was added to pre-dispensed compound dilution series in black, 384 well -low dead volume plates (Greiner) and the reaction was initiated by the addition of ATP and a BTK consensus peptide (Sequence: 5-Fluo-Ahx-[…]-Nle-P-Nle-NAND-NH2) to a final assay concentrations of 0.047 mM and 0.002 mM, respectively in assay buffer. The reaction was stopped after 60 min at 32 °C by addition of the same volume of spot solution containing 100 mM HEPES pH 7.5, 5% DMSO, 10 mM EDTA, 0.015% Brij 35. Stopped reactions were analyzed on a Caliper LC3000, which was treated with the commercially available coating reagents CR−3 and CR-8 as instructed by the manufacturer. The relative intensities of phosphorylated peptide were calculated. Data was normalized to control wells containing 100 mM EDTA solution instead of the 2× kinase solutions (0%) and DMSO-only control wells (100%). Normalized data was fitted using a sigmoidal fit.

A further experiment addresses T2, DCAF1(WDR) (Homo sapiens, UniProt Q9Y4B6, E1398S).
T2 construct: His6 (C); made in house; host or cells: Sf9 insect cells (baculovirus), co-expressed with BirA
In words: SPR, surface immobilized DCAF1(WDR), binary compound binding. A general note: In SPR one partner is held on a chip, and binding of the other changes the refractive index at the surface.

For a further experiment, the target named is BTK (Homo sapiens, UniProt Q06187). Nature of the experiment: Immunoblot of endogenous BTK in TMD8 cells. In kind it is cell-based. Details: performed with full-length BTK and endogenous DCAF1; expressed in transfected cells; host or cells: TMD8 cells, lentiviral, blasticidin-selected (TMD8 BTK-GFP/mCh). How it is done: (§1) Whole cell lysates for immunoblotting were prepared by pelleting cells at 4 °C (300 g) for 3 min. Cell pellets were then washed 1x with PBS and resuspended in RIPA lysis buffer (VWR, cat # 97063-270) supplemented with protease (Thermo Scientific, cat # A32955) and phosphatase (Thermo Scientific, cat # A32957) inhibitor tablets. Lysates were clarified at 16,000 × g for 15 min at 4 °C prior to quantification by Lowry assay (Bio-Rad cat # 5000113 and cat # 5000114). Whole-cell lysates were loaded into 4–20% Criterion TGX Precast 18 well gels (Bio-Rad, cat # 5671094) and separated by electrophoreses at 120 V for 1 h. The gels were transferred to a nitrocellulose membrane using the Trans-Blot Turbo (Bio-Rad) for 7 min and then blocked for 1 h at room temperature in Odyssey blocking buffer (LICOR Biosciences, cat # 927-50000). Membranes were probed with the appropriate primary antibodies (diluted 1:1000) overnight at 4 °C in 20% Odyssey blocking buffer in 1x TBST. Membranes were washed three times with 1x TBST (5 min per wash), and then incubated with IRDye goat anti-mouse (LICOR, cat # 926-32210) or goat anti-rabbit (LICOR, cat # 926-32211) secondary antibody diluted 1:10,000 in 20% Odyssey blocking buffer for 1 h at room temperature. After three 5-min washes with 1x TBST, the immunoblots were visualized using the ODYSSEY Infrared Imaging System (LICOR). Alternatively, SDS-PAGE resolved proteins were transferred to a PVDF membrane using a wet blotting system (Invitrogen). Membranes were blocked in 5% Milk-PBS-Tween 20 for 1 h and incubated with primary antibody over night at 4 °C. Secondary antibodies (secondary antibody: anti-rabbit, goat pAb to Rb-IgG (Abcam, #7090); secondary antibody: anti-mouse, sheep IgG HRP-linked (GE healthcare, #NA931V)) were incubated for 1 h at room temperature (RT) before blots were developed on film using the detection kit SuperSignal West Femto Maximum Sensitivity Substrate (Thermo Fisher, #34096).

A further experiment has as its target T3, BRD9 (Homo sapiens, UniProt Q9H8M2).
T3 sequence (Q9H8M2 1-597): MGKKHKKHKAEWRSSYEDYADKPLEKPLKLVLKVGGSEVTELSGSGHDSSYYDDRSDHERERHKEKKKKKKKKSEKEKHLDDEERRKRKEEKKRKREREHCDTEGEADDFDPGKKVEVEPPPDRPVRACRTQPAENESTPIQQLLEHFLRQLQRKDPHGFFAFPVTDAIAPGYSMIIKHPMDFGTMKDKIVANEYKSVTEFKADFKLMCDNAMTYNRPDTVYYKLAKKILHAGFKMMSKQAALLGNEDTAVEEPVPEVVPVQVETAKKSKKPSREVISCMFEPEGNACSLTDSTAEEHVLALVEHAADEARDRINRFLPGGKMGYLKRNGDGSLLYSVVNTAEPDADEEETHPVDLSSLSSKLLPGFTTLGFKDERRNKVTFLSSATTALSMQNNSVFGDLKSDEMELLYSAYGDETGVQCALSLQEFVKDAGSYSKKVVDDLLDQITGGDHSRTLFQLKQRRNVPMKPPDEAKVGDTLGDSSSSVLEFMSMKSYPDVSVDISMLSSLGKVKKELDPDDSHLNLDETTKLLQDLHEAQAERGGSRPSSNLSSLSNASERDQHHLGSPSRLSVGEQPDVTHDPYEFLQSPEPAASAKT
In words: Immunoblot of BRD9 in HEK293 BRD9-HiBiT/FF/CAS9 cells. More on the design: host or cells: HEK293/BRD9-HiBiT knock-in; clone and BRD9-HiBiT/CAS9/FF clone. It counts as cell-based. How it is done:
as §1

Setting [1] is: Fig. 6b, SPR, read-out: KD DCAF1.

Chain of BTK (Q06187 2-659 limits assumed): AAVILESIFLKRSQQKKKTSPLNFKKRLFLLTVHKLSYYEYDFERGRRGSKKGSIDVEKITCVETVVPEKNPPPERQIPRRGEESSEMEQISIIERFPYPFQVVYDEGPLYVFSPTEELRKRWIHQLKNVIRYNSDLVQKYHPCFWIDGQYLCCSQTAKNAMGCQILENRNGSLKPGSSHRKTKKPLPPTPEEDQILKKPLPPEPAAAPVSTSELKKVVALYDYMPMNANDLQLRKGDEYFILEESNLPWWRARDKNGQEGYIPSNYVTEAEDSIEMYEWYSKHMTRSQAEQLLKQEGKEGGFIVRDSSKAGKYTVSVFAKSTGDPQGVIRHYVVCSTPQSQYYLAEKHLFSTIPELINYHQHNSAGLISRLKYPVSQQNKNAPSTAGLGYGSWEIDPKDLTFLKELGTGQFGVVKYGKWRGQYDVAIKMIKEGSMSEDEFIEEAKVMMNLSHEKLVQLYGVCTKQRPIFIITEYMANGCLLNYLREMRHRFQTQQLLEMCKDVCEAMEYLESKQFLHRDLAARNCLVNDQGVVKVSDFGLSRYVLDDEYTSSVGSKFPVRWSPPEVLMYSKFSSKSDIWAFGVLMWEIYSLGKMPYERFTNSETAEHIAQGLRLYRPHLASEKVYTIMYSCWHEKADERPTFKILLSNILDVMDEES
T2 sequence (Q9Y4B6 1073-1399 E1398S): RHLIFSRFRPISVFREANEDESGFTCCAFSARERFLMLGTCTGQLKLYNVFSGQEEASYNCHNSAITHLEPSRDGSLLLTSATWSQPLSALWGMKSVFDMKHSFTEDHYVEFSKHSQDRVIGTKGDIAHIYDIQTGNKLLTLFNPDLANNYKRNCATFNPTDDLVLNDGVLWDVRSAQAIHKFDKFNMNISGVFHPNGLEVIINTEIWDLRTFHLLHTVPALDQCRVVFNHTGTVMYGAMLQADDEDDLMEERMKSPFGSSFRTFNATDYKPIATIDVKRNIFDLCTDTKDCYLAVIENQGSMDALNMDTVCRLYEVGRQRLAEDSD
T1 sequence (Q06187 402-655 limits assumed): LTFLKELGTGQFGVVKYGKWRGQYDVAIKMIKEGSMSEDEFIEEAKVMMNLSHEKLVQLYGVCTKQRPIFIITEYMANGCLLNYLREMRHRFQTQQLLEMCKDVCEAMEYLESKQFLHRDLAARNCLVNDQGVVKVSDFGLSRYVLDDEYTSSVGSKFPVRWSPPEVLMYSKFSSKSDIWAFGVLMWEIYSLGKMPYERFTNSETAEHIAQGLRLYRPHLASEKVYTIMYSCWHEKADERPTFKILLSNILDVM

The term IC50 denotes the concentration that inhibits the measured activity by half. A higher IC50 goes with lower potency. Usually Kd stands for a measure of binding affinity in units of concentration. With `Cc1c(NC(=O)N2CC(O)(CC(C)(C)C)C2)cc(F)cc1-c1ncnc2[nH]c(-c3cnn(CC(=O)N4CCC5(CC4)CN(CCNC(=O)CCCC(=O)N4CCN(c6ccc7c(NCCN)nc(C8(c9ccc(Cl)cc9)CCCCC8)nc7c6)CC4)CCO5)c3)cc12` [DBt-10], 44 nM corresponded to half-maximal inhibition against BTK kinase domain (IC50). Also, on DCAF1(WDR) (setting [1]), the Kd is 147 nM. Also, the “concentration giving significant reduction of BTK” value at BTK (TMD8, 6 h dose-response, immunoblot) is 2.5 µM.

Take `CC(=O)N1CCN(c2ccc3c(NCCN)nc(C4(c5ccc(Cl)cc5)CCCCC4)nc3c2)CC1` [compound 13]: the “BRD9 protein reduction by individual binders” value on BRD9 (1000 nM, 6 h) was “No BRD9 protein reduction”. The “BTK reduction by control treatment” value at BTK (TMD8, 1 µM, 1, 3, 6 and 24 h) is given as “did not reduce BTK at any time points”.

As to `COc1cc(-c2cn(C)c(=O)c3cnccc23)c(OC)cc1CN1CCC(OCCCCCC(=O)N2CCN(c3ccc4c(NCCN)nc(C5(c6ccc(Cl)cc6)CCCCC5)nc4c3)CC2)CC1` [DBr-1], the Kd at DCAF1(WDR) (binary, compound alone, spread in brackets, read-out: SPR KD) worked out at 13 nM. For the same compound, the BRD9 protein loss entry on BRD9 (1000 nM, 6 h, HEK293 cells) is “about 90%”. At BRD9 (1000 nM, after 30 min), this compound registered a BRD9 degradation of 90%. For the same compound, the DC50 on BRD9 (6 h, HEK293 cells, immunoblot, read-out: DC50 BRD9 estimated from dose-response curve) is roughly 500 nM.

Turning to `Cc1nc(Nc2ncc(C(=O)Nc3c(C)cccc3Cl)s2)cc(N2CCC(OC3CCN(CCCCCCCC(=O)N4CCN(c5ccc6c(NCCN)nc(C7(c8ccc(Cl)cc8)CCCCC7)nc6c5)CC4)CC3)CC2)n1` [DDa-1], the BTK degradation potency result at BTK (TMD8, 24 h, immunoblot) was “sub-µM potency”.

For the compound `Cc1c(NC(=O)c2ccc(C(C)(C)O)cc2F)cc(F)cc1-c1ncnc2[nH]c(-c3ccc(CNCCOCCOCCOCCOCCOCCOCCOCCOCCOCCOCCOCCOCCC(=O)N4CCN(c5ccc6c(NCCN)nc(C7(c8ccc(Cl)cc8)CCCCC7)nc6c5)CC4)cc3)cc12` [DBt-5], the 50% inhibitory concentration (IC50) on BTK kinase domain is 62 nM. In addition, on DCAF1(WDR) (setting [1]), the Kd amounted to 90 nM.
